The record followed here is patent US20250011330A1, “Imidazo[1,2- a]pyrazine and Imidazo[1,2- a]pyridine Based Tyrosyl-DNA Phosphodiesterase I (TDP1) Inhibitors” (The USA, As Represented by the Secretary, Department of …, priority 2021, published 2025).

One experiment addresses TOP1 (Homo sapiens (Human), UniProt P11387). Put plainly: Degradation of TOP1 in cells (western blotting). The note with it: list in description. It counts as cell-based. Background: A western blot detects proteins with antibodies after separation by electrophoresis.
In experiment [1] the test system is human colon cancer cell line HCT116. In words: Synergistic effect with camptothecin (CPT) based on cell viability. The note with it: for synergy with camptothecin: list in description; for Synergy Score: with camptothecin (CPT), HCT116, 72 h, SynergyFinder 2.0. Here is the method: The synergistic effects of the TDP1 inhibitors with CPT were tested in human colon cancer cell line HCT116 based on cell viability (Table 3, FIGS. 2-5). Cells were first seeded in a 384-well black-clear plate until 30% confluency and then incubated with a serial dilution of CPT at the range of 0-100 nM in the present or the absence of TDP1 inhibitors for 72 h at 37° C. Viable cell numbers were counted from the brightfield images taken by Biotek Cytation 5 (FIGS. 2-3). Fractional affect (Fa) and combination index (Ci) were analyzed with CompuSyn software. Synergistic scores of each TDP1 inhibitors were calculated and collected based on the data analysis from SynergyFinder (FIG. 4). […]

The target of experiment [2] is T1, TDP2 (Homo sapiens (Human), UniProt O95551). In words: gel-based TDP2 fluorescence assay in vitro. It counts as biochemical. The note with it: read-out: TDP2 IC50.
T1 sequence (O95551 whole entry, species assumed): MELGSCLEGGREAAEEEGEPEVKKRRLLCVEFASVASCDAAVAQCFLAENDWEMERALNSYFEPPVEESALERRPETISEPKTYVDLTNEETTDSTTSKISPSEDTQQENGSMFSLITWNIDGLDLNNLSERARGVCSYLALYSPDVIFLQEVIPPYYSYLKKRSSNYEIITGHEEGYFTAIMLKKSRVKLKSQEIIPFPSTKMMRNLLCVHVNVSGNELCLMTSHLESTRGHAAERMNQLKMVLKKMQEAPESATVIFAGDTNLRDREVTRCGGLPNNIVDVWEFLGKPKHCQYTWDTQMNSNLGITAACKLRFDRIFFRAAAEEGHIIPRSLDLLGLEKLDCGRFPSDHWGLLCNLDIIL
Experiment [3] addresses T2, TDP1 (Homo sapiens (Human), UniProt Q9NUW8). Put plainly: TDP1 gel-based in vitro fluorescence assay. The experiment is classed as biochemical.
In experiment [4] the target is whole cell extract (WCE) human TDP1 (Homo sapiens (Human), UniProt Q9NUW8). In words: gel based whole cell extract (WCE) human TDP1 fluorescence assay. It counts as biochemical. The note with it: read-out: WCE hTDP1 IC50.
Chain of whole cell extract (WCE) human TDP1 (Q9NUW8 whole entry): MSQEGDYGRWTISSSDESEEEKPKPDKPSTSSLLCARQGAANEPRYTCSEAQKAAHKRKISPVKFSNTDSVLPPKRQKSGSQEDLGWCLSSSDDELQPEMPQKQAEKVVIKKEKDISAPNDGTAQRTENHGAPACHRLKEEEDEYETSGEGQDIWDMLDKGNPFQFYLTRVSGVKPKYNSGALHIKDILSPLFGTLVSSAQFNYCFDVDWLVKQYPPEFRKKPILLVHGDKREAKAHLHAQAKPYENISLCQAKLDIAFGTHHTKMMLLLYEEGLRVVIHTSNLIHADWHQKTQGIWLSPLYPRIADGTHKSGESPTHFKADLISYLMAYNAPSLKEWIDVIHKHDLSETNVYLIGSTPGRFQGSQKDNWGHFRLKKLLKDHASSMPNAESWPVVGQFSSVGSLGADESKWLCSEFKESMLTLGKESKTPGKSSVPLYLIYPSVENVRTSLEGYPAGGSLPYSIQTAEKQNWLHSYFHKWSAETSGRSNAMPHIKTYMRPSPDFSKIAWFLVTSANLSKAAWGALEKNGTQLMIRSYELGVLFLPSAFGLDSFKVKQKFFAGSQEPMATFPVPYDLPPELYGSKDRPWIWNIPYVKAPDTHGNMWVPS
Experiment [5] deals with T2, TDP1. Put plainly: Lineweaver-Burk plot analysis of TDP1 inhibition. It counts as biochemical. The procedure:
Samples were then analyzed with a 20% DNA sequencing gel and exposed to a PhosphorImager screen for further analysis by Typhoon FLA 9500 (GE Healthcare). The Linearweaver-Burk plots (FIG. 1) were generated based on the substrate concentrations and corresponding reaction velocities.

For experiment [6], the target named is T2, TDP1. Put plainly: Degradation assay (western blotting) of TDP1 in HCT116 and HEK293 cells. It counts as cell-based. The note with it: list in description. Here is the method: The degradation effect of the TDP1 inhibitors on TDP1 in human colon cancer cell line HCT116 and embryonic kidney cell line HEK293 were studied. Cells were first seeded in a 6-well plate until 60-80% confluency and then incubated with a serial dilution of TDP1 inhibitors at the range of 25-200 μM for 24-72 h at 37° C. […] Samples were then sonicated at 30% for 10 s and centrifuged for 15 min at 15000 rpm at 4 Celsius. Supernatant were collected and the concentration of total protein were measured by BCA Protein Assay Kit according to its protocols. Four micrograms of total protein for each sample were loaded and TDP1 level were conducted by western blotting.

The target of experiment [7] is T1, TDP2. Put plainly: TDP2 degrading activity as stated in the description. Particulars: list in description.
The mark [8] stands for this setting: Table 8, lead compounds with different linkers.
Setting [9] is: Table 3, gel based TDP1 fluorescence assay, read-out: TDP1 IC50.
Setting [10] is: Table 3, values in brackets (footnote vi), read-out: TDP1 IC50 (μM), separated data from previous experiments.
Setting [11] is: Table 8, lead compounds with different linkers, read-out: TDP1 IC50.
[12] abbreviates: Table 8, ratio of IC50 TDP2 to TDP1.

Read-outs that look alike come from different tables or passages of the source.

For orientation: IC50 means the concentration at which inhibition is half-maximal. Broadly, the Ki is a dissociation constant, usually derived from enzyme kinetics or from competition with a known ligand.

T2 sequence (Q9NUW8 whole entry): as above

As to “4-((2-(4-(2-((4-(5-((λ^2-Azaneylidene)-λ^3-methyl)pyridin-2-yl)phenyl)methoxy)ethyl)phenyl)-7-phenylimidazo[1,2-a]pyridin-3-yl)amino)benzoic acid [XZ726]”, the TOP1 degrading activity result on TOP1 is “exhibit TOP1 degrading activity”. Moreover, the synergy with camptothecin entry in experiment [1] was “exhibit synergy with camptothecin”. For the same compound, the IC50 at TDP2 [2] (setting [8]) was greater than 100 µM.
For the compound `O=C(O)c1ccc(Nc2c(-c3ccc(-c4ccccc4)cc3)nc3ccc(C(=O)O)cn23)cc1` [Compound 8n, 2-([1,1′-Biphenyl]-4-yl)-3-((4-carboxyphenyl)amino)imidazo[1,2-a]pyridine-6-carboxylic acid], in experiment [1], the synergy with camptothecin result was “exhibit synergy with camptothecin”. For the same compound, in experiment [1], the “Synergy Score” value is 11.3. Also, the IC50 is 1.5 µM on TDP1 [3] (Table 1, imidazo[1,2-a]pyridin-3-amines, read-out: IC50); 2.94 ± 0.47 µM on TDP1 [3] (setting [9]); 1.5 µM on TDP1 [3] (setting [10]); greater than 100 µM on TDP2 [2] (Table 3); greater than 100 µM in experiment [4]. Also, the “TDP1 Selectivity” value on TDP1 [3] (ratio of IC50 values of TDP1/TDP2) was greater than 34.
Turning to `O=C(O)c1ccc(Nc2c(-c3ccccc3)nc3cnccn23)cc1C(=O)O` [Compound 10a, 4-((2-Phenylimidazo[1,2-a]pyrazin-3-yl)amino)phthalic acid], the “Synergy Score” value in experiment [1] stood at 4. In addition, the Ki at TDP1 [5] (FIG. 1 legend, Lineweaver-Burk analysis, read-out: Inhibitory constant Ki) came out at 110 ± 30.9 µM; at TDP1 [5] (Table 3, constant of inhibition (FIG. 1), read-out: Ki), 110 ± 30.9 µM. For the same compound, the IC50 on TDP1 [3] (Table 2, imidazo[1,2-a]pyrazin-3-amine core, read-out: IC50) is 45.5 µM; on TDP1 [3] (setting [9]), greater than 100 µM; at TDP1 [3] (setting [10]), 45.5 µM; at TDP2 [2] (Table 3), greater than 100 µM.
Take `Cc1ncsc1-c1ccc(CNC(=O)[C@@H]2C[C@@H](O)CN2C(=O)[C@@H](NC(=O)COCCOCCn2cc(COc3ccc(-c4nc5cc(-c6ccccc6)ccn5c4Nc4ccc(C(=O)O)cc4)cc3)nn2)C(C)(C)C)cc1` [XZ679, 4-((2-(4-((1-(2-(2-(2-(((S)-1-((2S,4R)-4-Hydroxy-2-((4-(4-methylthiazol-5-yl)benzyl)carbamoyl)pyrrolidin-1-yl)-3,3-dimethyl-1-oxobutan-2-yl)amino)-2-oxoethoxy)ethoxy)ethyl)-1H-1,2,3-triazol-4-yl)methoxy)phenyl)-7-phenylimidazo[1,2-a]pyridin-3-yl)amino)benzoic acid]: the TOP1 degrading activity entry on TOP1 is recorded as “exhibit TOP1 degrading activity”. Besides, the TDP1 degrading activity result at TDP1 [6] is on record as “exhibit TDP1 degrading activity”. Moreover, the 50% inhibitory concentration (IC50) at TDP2 [2] (Table 10, PROTACs) is greater than 100 µM.
With `N#Cc1ccc(-c2ccc(/C=N/OCc3ccc(-c4nc5cc(-c6ccccc6)ccn5c4Nc4ccc(C(=O)O)cc4)cc3)cc2)nc1` [XZ701, (E)-4-((2-(4-((((4-(5-Cyanopyridin-2-yl)benzylidene)amino)oxy)methyl)phenyl)-7-phenylimidazo[1,2-a]pyridin-3-yl)amino)benzoic acid], the TOP1 degrading activity result at TOP1 was “exhibit TOP1 degrading activity”. Further, the synergy with camptothecin result in experiment [1] was “exhibit synergy with camptothecin”. Further, on TDP2 [7], the TDP2 degrading activity result is on record as “exhibit TDP2 degrading activity”. For the same compound, the TDP1 degrading activity entry at TDP1 [6] is “exhibit TDP1 degrading activity”. Besides, the “selectivity against TDP1 than against TDP2” value at TDP1 [3] was found to be 74 fold. Moreover, the “FC (fold change)” value at TDP1 [3] (Table 7, ratio of IC50 TDP2 to TDP1) is on record as 74. For the same compound, the IC50 on TDP1 [3] (setting [11]) was determined as 0.38 ± 0.06 µM; at TDP1 [3] (purified oximes and SMM leads, read-out: TDP1 IC50), 0.38 ± 0.06 µM; on TDP2 [2] (Table 7, HPLC-purified oxime leads) it was 28.1 ± 8.9 µM. Besides, on TDP1 [3] (fold more than SMM lead 3), the “TDP1 inhibition relative to SMM lead 3” value came out at 10 fold.
Regarding `N#Cc1ccc(-c2ccc(Cn3cc(-c4ccc(-c5nc6cc(-c7ccccc7)ccn6c5Nc5ccc(C(=O)O)cc5)cc4)nn3)cc2)nc1` [XZ718, 4-((2-(4-(1-(4-(5-Cyanopyridin-2-yl)benzyl)-1H-1,2,3-triazol-4-yl)phenyl)-7-phenylimidazo[1,2-a]pyridin-3-yl)amino)benzoic acid], the TOP1 degrading activity result at TOP1 was “exhibit TOP1 degrading activity”. The synergy with camptothecin entry in experiment [1] is reported as “exhibit synergy with camptothecin”. The TDP2 degrading activity entry at TDP2 [7] is reported as “exhibit TDP2 degrading activity”. In addition, at TDP1 [6], the TDP1 degrading activity entry is “exhibit TDP1 degrading activity”. Moreover, the IC50 on TDP1 [3] (setting [11]) is 3.1 ± 0.2 µM; on TDP2 [2] (setting [8]), 25.9 ± 0.4 µM. Also, at TDP1 [3] (setting [12]), the “FC (fold change)” value was determined as 8.
Regarding `N#Cc1ccc(-c2ccc(Cn3cc(COc4ccc(-c5nc6cc(-c7ccccc7)ccn6c5Nc5ccc(C(=O)O)cc5)cc4)nn3)cc2)nc1` [XZ720, 4-((2-(4-((1-(4-(5-Cyanopyridin-2-yl)benzyl)-1H-1,2,3-triazol-4-yl)methoxy)phenyl)-7-phenylimidazo[1,2-a]pyridin-3-yl)amino)benzoic acid], the TOP1 degrading activity result at TOP1 was “exhibit TOP1 degrading activity”. In experiment [1], the synergy with camptothecin entry is given as “exhibit synergy with camptothecin”. Moreover, the TDP2 degrading activity result at TDP2 [7] is “exhibit TDP2 degrading activity”. For the same compound, the TDP1 degrading activity entry at TDP1 [6] is given as “exhibit TDP1 degrading activity”. In addition, the concentration for half-maximal inhibition (IC50) at TDP1 [3] (setting [11]) came to 23.5 ± 3.2 µM; at TDP2 [2] (setting [8]), 32.9 ± 2.7 µM. Also, at TDP1 [3] (setting [12]), the “FC (fold change)” value is reported as 1.
With `N#Cc1ccc(-c2ccc(Cn3cc(-c4ccn5c(Nc6ccc(C(=O)O)cc6)c(-c6ccccc6)nc5c4)nn3)cc2)nc1` [XZ722, 4-((7-(1-(4-(5-Cyanopyridin-2-yl)benzyl)-1H-1,2,3-triazol-4-yl)-2-phenylimidazo[1,2-a]pyridin-3-yl)amino)benzoic acid], the TOP1 degrading activity entry at TOP1 is on record as “exhibit TOP1 degrading activity”. The TDP2 degrading activity entry on TDP2 [7] was “exhibit TDP2 degrading activity”. Besides, the TDP1 degrading activity result at TDP1 [6] is recorded as “exhibit TDP1 degrading activity”. The figures for the half-maximal inhibitory concentration (IC50) at TDP1 [3] (setting [11]) and at TDP2 [2] (setting [8]) were 5.95 ± 1.25 µM and 18 ± 1.2 µM, respectively. Further, the “FC (fold change)” value on TDP1 [3] (setting [12]) was 3.
